Data from the NIST ThermoML archive (doi:10.1016/j.fluid.2013.12.002).
Numbers after ± are expanded uncertainties.

Conditions: Liquid, Ebulliometric method (Recirculating still)

Compound: O=CC=Cc1ccccc1 [(E)-3-phenyl-2-propanal]
- vapor or sublimation pressure (442.84 K): 10 ± 0.15 kPa
- vapor or sublimation pressure (463.15 K): 20 ± 0.33 kPa
- vapor or sublimation pressure (475.83 K): 30 ± 0.49 kPa

Compound: O=Cc1ccccc1 [benzaldehyde]
- vapor or sublimation pressure (377.63 K): 10 ± 0.15 kPa
- vapor or sublimation pressure (396.65 K): 20 ± 0.31 kPa
- vapor or sublimation pressure (408.67 K): 30 ± 0.45 kPa

Compound: c1ccccc1 [benzene]
- vapor or sublimation pressure (353.26 K): 101.33 ± 1.4 kPa

Compound: Cc1ccccc1 [toluene]
- vapor or sublimation pressure (383.81 K): 101.33 ± 1.4 kPa
